The record followed here is patent US6753424B1, “Conjugates of DNA interacting groups with steroid hormones for use as nucleic acid transfection agents” (priority 1998, dated 2004).

The subject of one test is GR-GFP chimera. The test is described as follows: Nuclear Transfer Induction assay (NTI), monourethane ligands, HeLa cells. The settings on record: 1 hr. The class given is cell-based. How it is done:
Conditions: HeLa cells are transiently transfected by CaPO4 with an expression vector encoding a GR-GFP chimera (5 μg in transfection cocktail, 4 cm diameter dishes, DMEM with 3% FCS). After 24 hour expression, ligand is added for 1 hr and cells are fixed with formaldehyde (5 min 4° C.) and inspected by fluorescence microscopy. Fluorescent cells are counted and divided into different classes according to ‘cytoplasmic’ (C) versus ‘nuclear’ (N) localisation of fluorescence.
First column: “Conditions”: Name of compounds added (marked at top: ‘//ligand’), and their concentration (in parentheses) and assay number (01 through 21).
Values are given as percentage of cells displaying the corresponding localisatidn, within each tested condition the sum is 100%.

For test [1], the system named is CV-1 cells reconstituted with exogenous GR. The test is described as follows: Transfection enhancement, CMV-LacZ reporter, CV-1 cells reconstituted with exogenous GR. In kind it is cell-based, monkey. The settings on record: CV-1 cells that have not been supplemented with GR; data not shown.
The test system is the same in test [2]. The test is described as above. The class given is cell-based, monkey. How it is done: Conditions: CV-1 cells are first infected with an adenovirus system allowing expression of GR in >90% of the cells (S. B. Verca, unpublished). After 24 hours the cells are; transfected with an expression vector that is constitutively expressing the reporter gene LacZ (CMV-LacZ). Transfection conditions and analysis of LacZ reporter are the same as described in Example 7 legend. Transfection is performed O/N and after rinsing of the precipitate the cells are further incubated for 24 hours. LacZ levels are determined from cell extracts with a chemiluminescence LacZ enzyme assay (Galactolight plus, Tropix). The relative luminescence from each extract is given. Each value represents an individual extract. “Induction”: relative reporter gene activity (values divided by value of assay in lane 9, true negative control for liganding), rel/RLU=(RLU:protein)×1000, net=rel/RLU−600 (600=rel/RLU value approximately corresponding to rel/RLU value of mock transfection).

The subject of a further test is HUH-7 cells. The test is described as follows: Transfection enhancement, CMV-LacZ reporter, HUH-7 cells. In kind it is cell-based, human. How it is done:
Conditions: HUH-7 cells are human hepatoma cells that contain substantial amounts of glucocorticoid receptor. The cells are transfected with an expression vector that is constitutively expressing the reporter gene LacZ (CMV-LacZ). Transfection conditions and analysis of LacZ reporter are the same as described in Example 7 legend. Transfection is performed O/N and after rinsing of the precipitate the cells are further incubated for 24 hours. LacZ levels are determined from cell extracts with a chemiluminescence LacZ enzyme assay (Galactolight plus, Tropix). The relative luminescence from each extract is given. Each value represents an individual extract. “Induction”: relative reporter gene activity (values divided by value of assay in lane 9, true negative control for DNA liganding). rel/RLU=(RLU:protein)×1000; net=rel/RLU−600 (600=rel/RLU value approximately corresponding to rel/RLU value of mock transfection).

The next test relates to 3Y1 cells. The experiment in a line: Transfection enhancement, CMV-LacZ reporter, CaPO4 transfection of 3Y1 cells. The class given is cell-based, rat. To be noted: for light units (relative luminescence, LacZ): 5 μg reporter, 3Y1. How it is done: Conditions: 3Y1 cells are transfected with an expression vector that is constitutively expressing the reporter gene LacZ (CMV-LacZ). Transfection conditions are identical throughout the various samples (total 10-12 μq DNA for 4 cm dishes). In some samples the DNA used for the transfection cocktail is pre-incubated with various conjugates at the given concentrations. The concentrations are calculated to give from 10−8 to 10−6 M after dispersing the CaPO4 precipitate in the recipient dish (5 ml volume). Transfection is performed O/N and after rinsing of the precipitate the cells are further incubated for 24 hours. LacZ levels are determined from cell extracts with a chemiluminescence LacZ enzyme assay (Galactolight plus. Tropix). The relative luminescence from each extract is given in RLU/mg*1000.
Cell culture. Cells are cultivated in DMEM supplemented with serum and antibiotica according to standard conditions (typically 10% FCS and Pen/Strep as antibiotica). At the day of transfection, cells are trypsinized and seeded at around 25-30% confluency. Cells are allowed to adhere to dish for 4-6 hours prior to transfection.
DNA pre-incubation (example for conditions that give5×10 exp (−6) Molar final concentration of the CL-C4-EtBr conjugate):
5 microgram of CMV-LacZ DNA (in 10 microliter TE) are mixed with 10 nmoles of hormone derivative (10 microliters stock solution) and incubated for 10 min at room temperature (final volume: 20 ul). The DNA/cortisol-C4-ethidum mix is then supplemented with 7 micrograms sheared calf thymus carrier DNA (in 14 microliters TE) and bidistilled water to give a final volume of 125 microliters.
Transfection by CaPO4: to each transfection sample (125 microliter volume DNA+water). 125 microliters of Ca ++ mix are added, and the mix is incubated for 5-10 min at room temperature. Each sample is then supplemented with 250 microliter of Pi-mix (with simultaneous mixing by up-down pipetting) and is further incubated 10 minutes at room temperature after which the cocktail is poured on top of the medium (5 ml) of each cell culture dish (4 cm diameter). The optimal time of incubation after Pi-mix addition is pre-determined by prior evaluation (size of the precipitate) of parallel samples. The precipitate is allowed to deposit onto the cells for 15 hours (incubation of 37 degrees, 5% CO2). The cells are then rinsed twice with Tris-buffered Saline, supplemented with fresh medium and further incubated under standard conditions. To analyze LacZ reporter gene function, the cells are either fixed or harvested 24 hours after precipitate removal.
Variation of parameters: samples in which the C1-C4-EtBr conjugates (or control compounds) are used at different concentrations, are similarly treated, except that the concentration of the stock solution in ethanol is correspondingly varied.

Test [3] has as its system pBR322, linearized with HindIII. The test is described as follows: DNA cross-linking by 365 nm UV irradiation, alkaline gel electrophoresis. In kind it is biochemical. To be noted: 5 nmoles, 1 microgram DNA, 20 min 365 nm UV. How it is done:
DNA: CsCl purified pBR322, linearized with HindIII and resuspended in TE at a concentration of 30 nanogram/microliter hormone derivative: cortisol-C4psoralen resuspended in 100% methanol at a concentration of 10 exp(−3) Molar psoralen (Fluka) resuspended in 100% ethanol at a concentration of 10 exp(−3)Molar.
Irradiation buffer: 50 mM Tris (pH=7.5), 0.1 mM EDTA, 10 mM NaCl, 10 mM MgCl2 crosslinker apparatus: Bio-Link (BLX) equipped with 4 UV lamps (T-8.L, 365 nanometer nominal wave length) 1 microgram of DNA (in 33 microliter) is mixed at room temperature with 5 nmoles cortisol-C4-psoralen or plain psoralen (either in 5 microliter) and 33 microliter irradiation buffer and pipetted into a well (final volume: 71 microliter) The 96× wells plate is then covered by its plastic lid and put on top of an ice-bed in a plastic box inside the crosslinker apparatus. The cooled microwell plate is irradiated for 20 min with 365 nm UV light (corresponds to an approximate value of 16 joules/square cm). The cross-linked products are then precipitated 2 times with ethanol and resuspended in TE. The products are compared to non-irradiated samples by alkaline gel electrophoresis, where cross-linked DNA maintains its double-stranded molecular weight.

As for `CC[n+]1c(-c2ccccc2)c2cc(NC(=O)CCNC(=O)OCC(=O)[C@@]3(O)CCC4C5CCC6=CC(=O)CCC6(C)C5C(O)CC43C)ccc2c2ccc(N)cc21` (stereo partly drawn) [CL-C4-EtBr], the results for the “C < N, percentage of cells” value with GR-GFP chimera (ligand 1.10-6M) and in the test on GR-GFP chimera (ligand 1.10-7M) were 45% and 9%, respectively. Also, the “C << N, percentage of cells” value in the test with GR-GFP chimera (ligand 1.10-6M) and in the test with GR-GFP chimera (ligand 1.10-7M) was 0% throughout. In addition, the “C = N, percentage of cells” value with GR-GFP chimera (ligand 1.10-6M) is reported as 55%; in the test with GR-GFP chimera (ligand 1.10-7M), 74%. Moreover, the figures for the “C > N, percentage of cells” value with GR-GFP chimera (ligand 1.10-6M) and with GR-GFP chimera (ligand 1.10-7M) were 0% and 17%, respectively. For the same molecule, the “C >> N, percentage of cells” value in the test on GR-GFP chimera (ligand 1.10-6M) and in the test on GR-GFP chimera (ligand 1.10-7M) was 0% in each case. In addition, the “SMGD effect (transfection enhancement)” value in test [1] is reported as “No SMGD effect”. Besides, the improvement of expression is on record as 15-20 fold in test [2] (lane 06 (10-6) versus lanes 7-9, CV-1 with GR); 7-8 fold in the test on HUH-7 cells (lane 07 (10-6) versus lanes 8-9, HUH-7); 5-7 fold in the test with 3Y1 cells (lane 10 (10^-6M) versus lanes 11-13, 3Y1). The RLU in test [2] (ligand 10-6, CV-1 with GR) is recorded as 10010; in test [2] (ligand 10-7, CV-1 with GR), 1988; in test [2] (ligand 10-8, CV-1 with GR) it was 1211; in the test with HUH-7 cells (ligand 10-6, HUH-7), 629514; with HUH-7 cells (ligand 10-7, HUH-7), 198082. The “induction (relative reporter gene activity, divided by value of lane 9)” value in test [2] (ligand 10-6, CV-1 with GR) was found to be 17.3; in test [2] (ligand 10-7, CV-1 with GR), 2.75; in test [2] (ligand 10-8, CV-1 with GR) it was 1.33; in the test with HUH-7 cells (ligand 10-6, HUH-7) it was 7.84; with HUH-7 cells (ligand 10-7, HUH-7), 1.95. The “net = rel/RLU−600” value in test [2] (ligand 10-6, CV-1 with GR) is 13992; in test [2] (ligand 10-7, CV-1 with GR) it was 2232; in test [2] (ligand 10-8, CV-1 with GR), 1075. The “rel/RLU = (RLU:protein)×1000” value was 14592 in test [2] (ligand 10-6, CV-1 with GR); 2831.9 in test [2] (ligand 10-7, CV-1 with GR); 1675 in test [2] (ligand 10-8, CV-1 with GR). In addition, the net amounted to 543 in the test with HUH-7 cells (ligand 10-6, HUH-7) and 135 in the test with HUH-7 cells (ligand 10-7, HUH-7). Also, the rel/RLU was 673.3 with HUH-7 cells (ligand 10-6, HUH-7) and 265.2 with HUH-7 cells (ligand 10-7, HUH-7). Besides, the “light units (relative luminescence, LacZ)” value in the test on 3Y1 cells (ligand 10^-6M) amounted to 7250 RLU/mg*1000; with 3Y1 cells (ligand 10^-7M), 3750 RLU/mg*1000; with 3Y1 cells (ligand 10^-8M) it was 2750 RLU/mg*1000.
`Cc1oc2c(C)c3oc(=O)cc(C)c3cc2c1CNC(=O)CCNC(=O)OCC(=O)[C@@]1(O)CCC2C3CCC4=CC(=O)CCC4(C)C3C(O)CC21C` (stereo partly drawn) [CL-C4-Pso]: the DNA cross-linking efficiency entry in test [3] was “as efficient as cross-linking with free psoralen”. In addition, in the test on GR-GFP chimera (ligand 1.10-6M), the “C < N, percentage of cells” value was determined as 63%; the “C << N, percentage of cells” value was found to be 8%; the “C = N, percentage of cells” value was determined as 29%; the “C > N, percentage of cells” value is 0%. In the test with GR-GFP chimera (ligand 1.10-6M), the “C >> N, percentage of cells” value amounted to 0%. In the test on GR-GFP chimera (ligand 1.10-7M), the “C < N, percentage of cells” value amounted to 5%; the “C << N, percentage of cells” value is listed as 0%; the “C = N, percentage of cells” value came to 75%; the “C > N, percentage of cells” value was determined as 20%. Besides, the “C >> N, percentage of cells” value with GR-GFP chimera (ligand 1.10-7M) was found to be 0%.
